According to US5728686A, “Alkylxanthine phosphonates and alkylxanthine phosphine oxides and their use as pharmaceuticals” (Hoechst Aktiengesellschaft, priority 1996, dated 1998):
Values after ≈ are worked out from the molar mass of the structure shown.

How the values were obtained:
[1] = tested on: isolated guinea pig trachea, agonist substance P; assay: antagonist of substance P-induced contraction of isolated guinea pig trachea; assay type: cell-based; conditions: Cavia porcellus, individual doses, 37° C., read-out: Anticontractile action (trachea), SP antagonism: concentration range for dilatation corresponding to ED50 range
Description: 3. Activity as antagonist of the contraction of isolated guinea pig trachea
The compounds of the formula I are used as antagonists of the contraction of isolated guinea pig trachea. The agonists employed were PGF2α (Upjohn, Germany), calcium ionophore A23187 (Calbiochem, Bad Soden, Germany), and substance P (American Peptide Comp., USA):
The antagonism is possible on the one hand due to specific receptor antagonists, and on the other hand also due to inhibition of the subsequent signal pathway. Preparations which directly or indirectly increase the intracellular concentration of cyclic nucleotides in particular show spasmolytic properties here.
(§1) Preparation of the organ sections and experimental procedure:
The guinea pig is sacrificed by means of terminal laughing gas anaesthesia. The trachea is exposed along its entire length and cut into 15 individual cartilage rings. 5 rings in each case are tied together to give a chain and fixed in the organ bath under a preload of 3 g. After an equilibration time of 45 minutes, a contraction is produced using the agonist. The antagonist (test preparation) is added cumulatively on the plateau of the maximum. Evaluation is carried out in % force change relative to the contraction maximum. The experimental procedure is carried out at 37° C.; the physiological nutrient solution used is a modified Krebs-Henseleit solution through which is bubbled 95% by volume of O2, 5% by volume of CO2.
Experimental animals: albino guinea pigs (Hattersheim Animal Breeding Institute, Kastengrund, Germany), weight: 200 to 300 g, sex male or female.
Vehicle: double-distilled water, ethanol or isopropanol; administration: into the organ bath number of administration: cumulative, in SP individual doses
All numerical values are indicated in the unit μg/ml and relate to the concentration range of the tested compound of the formula I according to the invention (see example numbers in Table 1) which is necessary in order to cause a dilatation which corresponds to the ED50 range.

[2] = tested on: isolated guinea pig lung strips, leukotriene D4 (LTD4); assay: antagonist of LTD4-induced contraction of isolated guinea pig lung strips; assay type: cell-based; conditions: Cavia porcellus, read-out: Anticontractile action (lung), LTD4: concentration range corresponding to the IC50 value
Description: (§2) 4. Activity as an antagonist of the contraction of isolated guinea pig lung strips
(§3) The test carried out is based on the same principle as the test indicated in the pharmacological test 3; however, lung strips are used here.
as §1
(§4) The guinea pig is sacrificed under laughing gas anaesthesia. The entire pulmonary tract is exposed starting from the trachea. The lobes of the lung are cut in a circular fashion such that 3 mm wide strips are formed. The strips of the upper lobes are divided in order to obtain a total of six approximately equal size strips. The strips are suspended in the organ baths under a preload of 4 g. The nutrient solutions used are modified Krebs Henseleit solutions. When using "Platelet activating factor" (PAF) as an […], the composition of this solution corresponds to that for the agonist SP in "Test 3"; for the agonist LTD4 a Krebs Henseleit solution as in the case of the agonist KCl (Test 3) is used. 95% by volume O2, 5% by volume CO2 is used for bubbling through the bath; the bath temperature is 37° C. The experimental procedure is carried out in a therapeutically cumulative methodology, using the dosage graduations 1, 3, 6 and 10 μg/ml.
(§5) The experimental animals, organ bath, vehicles and manner of administration correspond to that stated in pharmacological test 3.
(§6) All numerical values are indicated in the unit μg/ml and relate to the concentration range of tested compound of the formula I (see example numbers in Table 1) which is necessary in order to cause a contraction which corresponds to the IC50 value.

[3] = tested on: muscle group (gastrocnemius, plantaris and soleus) of the immobilized right rear extremity; assay: rat muscle function test: direct electrical stimulation of muscle group after 3 weeks' immobilization; assay type: in vivo, male Wistar rats; conditions: oral, 1x per day for 3 weeks, as a rule 25 mg/kg, ≤-12% classified as active; for Force (force under the contraction curve, right/left difference): isometric stimulation, control difference approx. 25%; for Work (performed work, right/left difference): isotonic stimulation, control approx. -25%
Description: (§7) 1. Activity in the rat muscle function test
(§8) Male Wistar rats (body weight about 300 g) were kept under standard conditions with feed and water ad libitum. The right rear extremity was immobilized by fitting a kind of "shoe" to the animals under short-term anaesthesia. Two ergonomically fitted halves of the "shoe" were cast from a liquid plastic material which is also used for the production of dental prostheses, these were put onto the animal under brief anaesthesia and joined with the aid of a wire. The material is light but hard, so that the animals cannot gnaw the material, and the "shoe" can be opened at any time to examine the condition of the immobilized extremity. The two halves were moreover padded out with chamois leather in order to avoid compressions and possible injuries due to rubbing. The system also has the advantage that the angle of immobilization is standardized in all animals; this would not be possible with a plaster cast. The chosen angle allows the animals to take up a normal sitting position despite the "shoe" and also to carry the body weight using this extremity. Only complete stretching or bending of the leg is impossible.
(§9) After 3 weeks' immobilization of the right rear extremity and simultaneous oral administration of test preparations (1× per day using a stomach tube; as a rule 25 mg/kg of body weight, in carboxymethylcellulose, the animals were weighed and anaesthetized with pentobarbital (35 mg/kg i.p.). Functional parameters were measured during direct electrical stimulation of a muscle group (gastrocnemius, plantaris and soleus). This muscle group, merely called "muscle" in the following, was exposed at the ankle tendon and tied to a force transducer via the tendon.
To determine the contractile force, the muscles were stimulated isometrically, i.e. a preload of 0.5N was applied and the muscle was stimulated by means of a series of electrical pulses, which led to a maximum contraction, every 0.7 sec for 80 msec for a period of 15 min. […] The area under this contraction curve was evaluated and the difference in percent between the right atrophic and left normal muscle compared (force under the contraction curve as difference in percent (Δ%)). The difference in the control group is approximately 25%.
An isotonic muscle stimulation was used to determine the performed work of the muscle over time. In this type of measurement, the shortening of the muscle during contraction is used as a basis. To this end, a preload which corresponds to the body weight was applied to the muscles. A series of stimulation pulses (80 msec) were triggered every 3 sec and the muscle was stimulated for 15 min. The data (contraction force and distance travelled) were converted to the work performed in the unit J using an automated system. The difference in the work performed between the immobilized atrophic and the normal muscle in the control animals was approximately -25%.
Values which are positive indicate that the functional parameters of the immobilized muscle were better than those of the contralateral normal muscle.

soleus muscle = assay: rat muscle function test: muscle weight (atrophy of immobilized extremity); assay type: in vivo, male Wistar rats; conditions: oral, 1x per day for 3 weeks, as a rule 25 mg/kg, difference ≤25% classified as an effect
Description: as §7, §8
In spite of this, a significant decrease in the skeletal muscle mass (atrophy) of the immobilized extremity occurred, to be precise up to -35% in comparison with the contralateral nonimmobilized rear extremity. As the soleus muscle was the most severely affected, the changes in muscle weight after administration of preparation shown in Table 1 relate to this muscle. A difference of ≤25% between the right immobilized and left non-immobilized rear extremity was classified as an effect.
as §9

[4] = tested on: isolated guinea pig lung strips, Platelet activating factor (PAF); assay: antagonist of PAF-induced contraction of isolated guinea pig lung strips; assay type: cell-based; conditions: Cavia porcellus, read-out: Anticontractile action (lung), PAF: concentration range corresponding to the IC50 value
Description: as §2, §3, §1, §4, §5, §6

phosphodiesterase III = assay: inhibition of phosphodiesterase III activity; assay type: biochemical; conditions: at 100 μM
Description: 5. Inhibition of phosphodiesterase III activity
The test is carried out using phosphodiesterase from Boehringer Mannheim (Mannheim, Germany), Order No. 108 243 according to the method of T. SAEKI, I. SAITO, Biochem. Pharm. 46, No. 5, […], pages 833-839.
All numerical values are indicated in % inhibition of the enzyme activity at 100 μM of the corresponding compound of the formula I.

| Compound | EC50 [1] [µg/mL] | IC50 [2] [µg/mL] | Force (force under the contraction curve, right/left difference) [3] | Work (performed work, right/left difference) [3] | Muscle weight (right/left difference) (soleus muscle) | IC50 [4] [µg/mL] | PDE III Inhibition (phosphodiesterase III) [%] |
| --- | --- | --- | --- | --- | --- | --- | --- |
| CCCn1c(=O)c2c(ncn2CCCP(=O)(OCC)OCC)n(CCC)c1=O [Example 9, Diethyl [3-(1,3-dipropylxanthin-7-yl)propyl]phosphonate] | 10 to 30 (≈ 24.1 to 72.4 µM) | 3 to 6 (≈ 7.24 to 14.5 µM) |  |  |  |  |  |
| CCOP(=O)(CCCCn1cnc2c1c(=O)n(CCC(C)C)c(=O)n2C)OCC [Example 15, Diethyl [4-(1-(3-methylbutyl)-3-methylxanthin-7-yl)butyl]phosphonate] | 30 to 60 (≈ 70 to 140 µM) |  | +5 Δ % | +2 Δ % | 0 Δ % |  |  |
| CCCn1cnc2c1c(=O)n(CCCCCP(=O)(OCC)OCC)c(=O)n2C [Example 17, Diethyl [5-(3-methyl-7-propylxanthin-1-yl)-pentyl]phosphonate] | 30 to 60 (≈ 72.4 to 145 µM) | 1 to 3 (≈ 2.41 to 7.24 µM) | +2 Δ % | -10 Δ % | 0 Δ % | 1 to 3 (≈ 2.41 to 7.24 µM) | 77 |
| CCOP(=O)(CCCCCn1c(=O)c2c(ncn2CC)n(C)c1=O)OCC [Example 20, Diethyl 5-(7-ethyl-3-methylxanthin-1-yl)pentylphosphonate] | 10 to 30 (≈ 25 to 74.9 µM) |  |  |  |  |  | 65 |
| CCOP(=O)(CCCn1c(=O)c2c(ncn2C)n(C)c1=O)OCC [Example 33, Diethyl [3-(3,7-dimethylxanthin-1-yl)propyl]phosphonate] | 10 to 30 (≈ 27.9 to 83.7 µM) |  | -7 Δ % | -10 Δ % | -16 Δ % | 3 to 6 (≈ 8.37 to 16.7 µM) |  |
| CCOP(=O)(CCCCn1c(=O)c2c(ncn2CCC(C)C)n(C)c1=O)OCC [Example 41, Diethyl {4-[7-(3-methylbutyl)-3-methylxanthin-1-yl)butyl]phosphonate] |  |  |  |  |  |  | 56 |
| CCOP(=O)(CCCCCn1c(=O)c2c(ncn2Cc2ccccc2)n(C)c1=O)OCC [Example 43, Diethyl [5-(7-benzyl-3-methylxanthin-1-yl)pentyl]phosphonate] |  | 1 to 6 (≈ 2.16 to 13 µM) |  |  |  | 1 to 3 (≈ 2.16 to 6.49 µM) | 52 |
| CCOP(=O)(CCCn1c(=O)c2c(ncn2CC2CC2)n(C)c1=O)OCC [Example 46, Diethyl [3-(7-cyclopropylmethyl-3-methylxanthin-1-yl)propyl]phosphonate] |  |  | +1 Δ % | +9 Δ % | -17 Δ % |  | 67 |
| CCOP(=O)(CCCn1c(=O)c2c(ncn2C(C)C)n(C)c1=O)OCC [Example 47] | 10 to 30 (≈ 25.9 to 77.6 µM) |  |  | -6 Δ % | 0 Δ % |  | 64 |
| CCCCn1cnc2c1c(=O)n(CCCCCP(=O)(OCC)OCC)c(=O)n2C [Example 48, Diethyl [5-(7-butyl-3-methylxanthin-1-yl)pentyl]phosphonate] |  |  | -3 Δ % | -7 Δ % | 0 Δ % |  | 52 |
| CCOP(=O)(CCCCCn1c(=O)c2c(ncn2CC2CC2)n(C)c1=O)OCC [Example 49, Diethyl [5-(7-cyclopropylmethyl-3-methylxanthin-1-yl)pentyl]phosphonate] |  | 3 to 6 (≈ 7.03 to 14.1 µM) | -5 Δ % | -5 Δ % | -25 Δ % |  | 57 |
| CCOP(=O)(CCCCn1c(=O)c2c(ncn2CC2CC2)n(C)c1=O)OCC [Example 50, Diethyl [4-(7-cyclopropylmethyl-3-methylxanthin-1-yl)butyl]phosphonate] |  |  |  |  |  |  | 51 |
| CCCn1cnc2c1c(=O)n(CCCP(=O)(OCC)OCC)c(=O)n2C [Example 55, Diethyl [3-(3-methyl-7-propylxanthin-1-yl)propyl]phosphonate] |  |  |  |  |  | 1 to 3 (≈ 2.59 to 7.76 µM) | 59 |
| CCCn1cnc2c1c(=O)n(CCCCCP(=O)(OCC)OCC)c(=O)n2CC [Example 57, Diethyl [5-(3-ethyl-7-propylxanthin-1-yl)pentyl]phosphonate] |  |  | -5 Δ % | -8 Δ % | -17 Δ % |  | 70 |
